Measured values as given in ChEMBL document CHEMBL5465560, “Selectivity Literature for EUbOPEN Chemogenomic Library” (2024).

Legend:
[1] = target: Adenosine receptor A3 (Homo sapiens, UniProt P0DMS8); experiment: Selectivity interaction (Adenosine 3 receptor binding assay, human recombinant ) EUB0000877a ADORA3
[2] = target: T1, Mitogen-activated protein kinase kinase kinase 19 (Homo sapiens) (UniProt Q56UN5); experiment: Selectivity interaction (KinomeScan (DiscoverX)) EUB0001619a MAP3K19; conditions: at 1 µM
T1 sequence (whole entry): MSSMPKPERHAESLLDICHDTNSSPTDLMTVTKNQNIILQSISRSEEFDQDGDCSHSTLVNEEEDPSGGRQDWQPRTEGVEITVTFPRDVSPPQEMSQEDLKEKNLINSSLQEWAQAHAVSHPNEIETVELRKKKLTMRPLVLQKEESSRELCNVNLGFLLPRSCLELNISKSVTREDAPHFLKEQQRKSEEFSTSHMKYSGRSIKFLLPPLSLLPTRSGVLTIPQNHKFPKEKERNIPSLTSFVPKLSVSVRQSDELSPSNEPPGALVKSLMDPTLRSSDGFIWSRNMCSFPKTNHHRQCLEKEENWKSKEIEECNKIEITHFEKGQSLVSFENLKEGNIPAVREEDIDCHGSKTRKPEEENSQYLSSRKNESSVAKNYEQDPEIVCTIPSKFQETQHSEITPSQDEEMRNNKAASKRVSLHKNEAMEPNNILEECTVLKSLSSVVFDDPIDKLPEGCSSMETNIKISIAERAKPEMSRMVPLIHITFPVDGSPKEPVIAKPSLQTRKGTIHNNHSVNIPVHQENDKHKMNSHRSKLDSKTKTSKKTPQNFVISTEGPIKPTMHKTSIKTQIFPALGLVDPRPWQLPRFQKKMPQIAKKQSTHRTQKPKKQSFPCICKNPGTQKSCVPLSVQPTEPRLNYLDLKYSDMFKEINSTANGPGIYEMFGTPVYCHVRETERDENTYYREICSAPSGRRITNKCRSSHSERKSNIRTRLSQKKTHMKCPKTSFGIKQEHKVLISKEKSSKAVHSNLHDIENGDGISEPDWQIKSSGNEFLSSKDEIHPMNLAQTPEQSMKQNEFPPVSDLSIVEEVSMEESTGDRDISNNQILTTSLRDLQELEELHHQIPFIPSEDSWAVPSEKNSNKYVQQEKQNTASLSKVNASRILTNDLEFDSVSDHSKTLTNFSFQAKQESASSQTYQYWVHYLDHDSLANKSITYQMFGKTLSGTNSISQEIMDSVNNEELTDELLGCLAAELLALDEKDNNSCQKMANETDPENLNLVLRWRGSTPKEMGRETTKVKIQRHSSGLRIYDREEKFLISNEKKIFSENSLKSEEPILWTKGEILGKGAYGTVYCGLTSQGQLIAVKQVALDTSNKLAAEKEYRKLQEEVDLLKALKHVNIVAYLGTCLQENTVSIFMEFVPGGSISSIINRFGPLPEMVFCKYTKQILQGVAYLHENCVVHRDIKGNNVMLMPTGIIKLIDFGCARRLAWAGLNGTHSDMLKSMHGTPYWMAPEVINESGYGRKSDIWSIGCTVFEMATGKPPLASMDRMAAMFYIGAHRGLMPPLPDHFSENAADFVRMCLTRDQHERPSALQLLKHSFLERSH

[3] = target: T2, Serine/threonine-protein kinase D3 (Homo sapiens) (UniProt O94806); experiment: Selectivity interaction (Kinase panel (Z-LYTE Assay)) EUB0001632a PRKD3; conditions: at 10 µM
T2 sequence (whole entry): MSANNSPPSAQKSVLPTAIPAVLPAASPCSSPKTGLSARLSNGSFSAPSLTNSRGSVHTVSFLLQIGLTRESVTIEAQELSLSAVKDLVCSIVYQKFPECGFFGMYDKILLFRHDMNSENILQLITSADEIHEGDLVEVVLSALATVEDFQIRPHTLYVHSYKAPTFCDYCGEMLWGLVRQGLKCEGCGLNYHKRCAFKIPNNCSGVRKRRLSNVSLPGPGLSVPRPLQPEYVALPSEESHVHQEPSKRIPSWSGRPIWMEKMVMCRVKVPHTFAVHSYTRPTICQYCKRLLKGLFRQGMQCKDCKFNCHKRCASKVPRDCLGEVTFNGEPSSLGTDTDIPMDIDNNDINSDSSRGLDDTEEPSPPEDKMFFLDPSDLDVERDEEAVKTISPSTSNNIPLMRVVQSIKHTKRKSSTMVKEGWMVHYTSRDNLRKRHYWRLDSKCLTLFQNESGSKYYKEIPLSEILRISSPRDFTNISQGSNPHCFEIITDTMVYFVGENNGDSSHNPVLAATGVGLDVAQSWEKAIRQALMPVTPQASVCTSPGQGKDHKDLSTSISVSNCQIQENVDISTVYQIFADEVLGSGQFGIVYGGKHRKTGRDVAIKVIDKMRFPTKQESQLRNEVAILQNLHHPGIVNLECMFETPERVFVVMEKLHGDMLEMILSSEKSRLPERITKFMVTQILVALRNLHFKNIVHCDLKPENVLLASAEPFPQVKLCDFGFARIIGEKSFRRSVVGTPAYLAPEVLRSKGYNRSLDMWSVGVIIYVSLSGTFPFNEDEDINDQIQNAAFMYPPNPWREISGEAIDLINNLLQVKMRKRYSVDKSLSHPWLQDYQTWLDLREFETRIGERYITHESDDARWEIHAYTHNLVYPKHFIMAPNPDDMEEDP

Adenosine receptor A3, sequence (P0DMS8 whole entry): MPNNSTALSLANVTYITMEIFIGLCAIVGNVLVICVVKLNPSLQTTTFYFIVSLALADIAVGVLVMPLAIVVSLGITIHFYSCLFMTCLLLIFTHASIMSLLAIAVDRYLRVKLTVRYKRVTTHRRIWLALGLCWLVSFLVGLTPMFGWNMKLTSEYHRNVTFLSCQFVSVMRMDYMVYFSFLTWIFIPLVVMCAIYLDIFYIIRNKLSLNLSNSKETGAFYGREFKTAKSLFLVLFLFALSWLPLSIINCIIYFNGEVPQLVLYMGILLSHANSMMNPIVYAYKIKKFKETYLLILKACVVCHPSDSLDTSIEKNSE

CCC(=O)N1CC[C@H](Nc2ncnc3c2CN(c2cnc(OC)c(C(F)(F)F)c2)CC3)C1 [LENIOLISIB]
IC50 [1]: > 30 µM

N#Cc1cccc(-c2c[nH]c3ncnc(N4CCOCC4)c23)c1
% of control [2]: 3.8%

Cn1cc(-n2cnc3c(NCc4nc5cc(Cl)c(Cl)cc5[nH]4)nc(N4CCOCC4)nc32)cn1
% of control [3]: 1.79%
